TGI and GI50 data for ten compounds are collected here from PubChem BioAssay (NCI).

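Five compound concentrations were applied to cells in 96-well plates for 48 hours; endpoints were derived by simple linear interpolation of the resulting dose-response curve. GI50 = concentration required for 50% inhibition of growth. TGI is the concentration that stops growth completely.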 A value given as a limit tells only on which side of the number the result lay.

What all share (assay): NCI tumour cell line growth inhibition, 48 h
Test [1] deals with A549 NSCLC.
Test [2] concerns ACHN renal.
Test [3] has as its system EKVX NSCLC.
The subject of test [4] is HS 578T breast.
For test [5], the system named is HT29 colon.
Test [6] has as its system M14 melanoma.
Test [7] concerns MCF7 breast.
For test [8], the system named is MOLT-4 leukemia.
The test system of test [9] is SK-MEL-2 melanoma.
In test [10] the test system is SNB-75 CNS.

For `O=C(O)/C(Cc1ccnc2ccccc12)=N\O`, the TGI in [1], in test [2], in [3], in test [4], in [5] and in test [6] was > 100 µM throughout. For the same compound, the TGI in test [7], in test [8], in [9] and in [10] was > 100 µM each time.
Consider `COc1cc(C2C3=C(COC3=O)N(CCO)c3cc4c(cc32)OCCO4)cc(OC)c1OC` (centres undefined), for which the GI50 was 0.487 µM in test [1]; 1.7 µM in test [2]; 0.413 µM in test [3]; 0.164 µM in test [4]; 0.166 µM in [5]; 0.181 µM in test [6]. For the same compound, the GI50 in [7] is 0.192 µM; in test [8], 0.242 µM; in test [9], 0.173 µM; in test [10], 0.183 µM. For the same compound, the TGI was > 50 µM in test [1]; > 50 µM in test [2]; > 50 µM in test [3]; 35.5 µM in [4]; > 50 µM in [7]; > 11.4 µM in [8]. The TGI in test [9] is 4.55 µM; in test [10], > 50 µM.
With `O=C1/C(=C/c2ccc(F)cc2)CN(C(=O)CCN2CCC(=NO)CC2)C/C1=C\c1ccc(F)cc1`, the GI50 in test [1] is 4.09 µM; in test [2], 1.08 µM; in test [3], 2.19 µM; in [4], 1.71 µM; in [5], 0.845 µM; in test [6], 1.17 µM. Besides, the GI50 in test [7] is 0.768 µM; in [8], 0.699 µM; in test [9], 4.07 µM; in test [10] it was 2.29 µM. The TGI in [1] is 11.2 µM; in [2], 2.86 µM; in test [3] it was 5.9 µM; in [4], 6.51 µM; in [5] it was 2.61 µM; in test [6] it was 3.69 µM. In addition, the TGI in test [7] was 4.59 µM; in [8] it was 7.97 µM; in [9] it was 12.4 µM; in test [10] it was 7.5 µM.
As for `CS(=O)(=O)OCCCNCCCOS(C)(=O)=O`, the TGI is 4550 µM in test [1]; 3580 µM in [2]; 6030 µM in test [3]; 8170 µM in [4]; 4480 µM in test [5]; 5050 µM in [6]. For the same compound, the TGI in test [7] was found to be 5320 µM; in [8], 2340 µM; in [9], 3690 µM; in test [10], 6940 µM.
Take `CC(=O)N1CCN(CCNC(=O)n2cc(-c3ccncc3)c(-c3cc(O)cc(Cl)c3)n2)CC1`: the GI50 in [1] was 15.1 µM; in test [2], 8.26 µM; in [3] it was 24.6 µM; in [4], 16.7 µM; in test [5], 3.28 µM; in test [6], 1.23 µM. Also, the GI50 in test [7] was 14.7 µM; in test [8] it was 10.4 µM; in test [9] it was 10.8 µM; in test [10], 13.5 µM. Moreover, the TGI in [1] was 38.7 µM; in test [2] it was 61.9 µM; in [3], > 100 µM; in [4], 53.4 µM; in test [5], 11.9 µM; in test [6], 4.87 µM. Moreover, the TGI in [7] was 32.9 µM; in test [8], 49.2 µM; in test [9], 27 µM; in test [10], 41.4 µM.
Take `CCN(CC)CCCC(C)Nc1cc(-c2cccc(OC(F)(F)F)c2)nc2ccc(N3CCCC3)cc12` (centres undefined): the GI50 is 0.0677 µM in test [1]; 0.0744 µM in test [2]; 0.069 µM in test [3]; 0.0337 µM in [4]; 0.0394 µM in test [5]; 0.0361 µM in [6]. Besides, the GI50 in test [7] is 0.0353 µM; in test [8], 0.306 µM; in test [9], 0.598 µM; in test [10], 0.0361 µM. Moreover, the TGI was > 100 µM in test [1]; 39 µM in test [2]; > 100 µM in test [3]; 3.22 µM in test [4]; 11.2 µM in test [5]; 1.16 µM in test [6]. For the same compound, the TGI in test [7] was 22.5 µM; in test [8], > 100 µM; in test [9], 27 µM; in test [10], 59.4 µM.
Consider `C1CN(c2nnc(N3CCC3)nn2)C1`, for which the TGI was > 100 µM in [1]; > 92.1 µM in [2]; > 100 µM in test [3]; > 92.9 µM in test [4]; > 56.2 µM in [5]; 62.1 µM in test [6]. For the same compound, the TGI was > 72.2 µM in test [7], > 100 µM in test [8], > 89.5 µM in test [9] and > 46.4 µM in test [10].
`S=C1Cc2c(-c3ccc(Br)cc3)cc(-c3ccccc3)nc2-c2ccccc2N1`: the TGI in test [1] came out at 8.23 µM; in [2] it was 2.35 µM; in test [3], 4.67 µM; in test [4], 3.84 µM; in [5] it was 5.81 µM; in [6], 11.8 µM. The TGI in [7] was > 100 µM; in test [8] it was 72 µM; in test [9], 20 µM; in test [10] it was 3.35 µM. Further, the GI50 in test [2] is 0.867 µM.
For `CN(C)CC1CC/C(=C\c2ccc3c(c2)OCO3)C1=O` (centres undefined), the TGI in test [1] was > 75.3 µM; in test [2], 28.5 µM; in [3] it was 39.4 µM; in test [4], > 100 µM; in test [5] it was 59 µM; in test [6], 15 µM. The TGI in test [7] worked out at 19.8 µM; in test [8], 13.8 µM; in [9] it was 22.8 µM; in [10], 28.5 µM.
Consider `CC(C)OC(=S)Nc1ccc(Cl)c(/C=N/OC(C)(C)C)c1`, for which the TGI in test [1] was 40 µM; in test [2], 28.7 µM; in test [3] it was 36.3 µM; in [4] it was 38.6 µM; in [5], 28.6 µM; in [6], 39.9 µM. Further, the TGI was determined as 51 µM in test [7], 30.8 µM in test [8], 37.5 µM in test [9] and 54.7 µM in [10].
